Test results reported in patent US20100160295A1, “TREATMENT OF RESTLESS LEG SYNDROME AND SLEEP DISORDERS” (SYNOSIA THERAPEUTICS, priority 2008, published 2010).

Legend:
[1] = tested on: moderate to severe idiopathic RLS subjects; assay: IRLS scale, placebo-controlled study in RLS subjects; format: in vivo, human
Protocol: (§1) The study multi-centre, randomized, double-blind, parallel-groups, placebo-controlled study with 2 treatment arms, oral HPPD inhibitor (2-(2-nitro-4-trifluoromethylbenzoyl)-1,3-cyclohexanedione) and placebo. Subjects were randomized to either treatment with an HPPD inhibitor or placebo in a 2:1 ratio. The subjects were dosed with 4 mg on day 1, and 2 mg/day on days 2-14. The total duration of treatment with study drug for each subject was 14 consecutive days ending at the day of the final sleep lab assessment (Day 14), with a follow-up examination 29 days after Baseline.
The objective of this exploratory study was to show proof-of-concept of therapy with an exemplary HPPD inhibitor in moderate to severe idiopathic RLS subjects.
(§2) Efficacy parameters were changes between Baseline and end of treatment in objective measures of Periodic Limb Movements (PLM) and sleep efficiency and in investigator evaluations of severity of RLS symptoms as well as in subject's report on severity of RLS symptoms, sleep disturbances and depressive feelings. Parameters measured included: • Periodic Limb Movement (PLM) Index, defined as the number of PLM events occurring during time-in-bed (PLMI/h TIB) • Periodic Limb Movements during Sleep Index, defined as the number of PLMs per hour of total sleep time (PLMSI/h TST) • PLM arousal index, defined as the number of PLM with arousals per hour of total sleep time (PLMSAI/h TST) • Periodic Limb Movements during wakefulness index, defined as the number of PLMs per hour occurring during wakefulness within time-in-bed (PLMWI/h TIB) • Sleep Efficiency (SE) expressed as the percentage total sleep time (TST) of total time in bed (TIB) • Total Sleep Time (TST) • Total number of arousals per TST • Sleep latency • Restless Legs Scale—6 items (RLS-6) (Kohnen et al, 2004) • IRLS total score change from start of treatment to end • Time to requiring rescue medication (defined as time to dropout due to the need of rescue medication for intolerable RLS symptoms) • Physicians' Global Impression, rated by the Clinical Global Impressions Scale (CGI): severity, change and treatment effect • CGI responders defined as the proportion of subjects who improved “much” or “very much” on CGI item “change”. • Patients' Global Impression (PGI) scale Item 1 (efficacy) • Medical Outcomes Study (MOS) Sleep Scale • Beck Depression Inventory (BDI) • In addition, a patient diary was to be completed between days 8 and 15 • HPPD inhibitor plasma concentrations at Baseline, end of treatment and follow-up • Tyrosine plasma concentration at Baseline, end of treatment and follow-up.

Subjects with RLS = assay: Medical Outcomes Study (MOS) Sleep Scale, placebo-controlled study in RLS subjects; format: in vivo, human
Protocol: as §1, §2
Subjects with RLS received either placebo (7 subjects) or an HPPD inhibitor (13 subjects) given as 4 mg on day 1, then 2 mg per day for days 2-14 of the trial. Various parameters relevant to RLS were monitored during the course of treatment, in particular the quality of their sleep patterns using a standard assessment scale (Medical Outcomes Study (MOS) Sleep Scale). Individuals were asked to complete a standard evaluation of their ‘normal’ sleep experience at the start of the trial (Baseline) and again at the end of treatment (EoT), with the various parameters scored according to the attached document.
The MOS Sleep Scale is a comprehensive subject completed sleep questionnaire consisting of 12 items (Hays and Stewart, 1992; Hays et al., 2005). Each item measures a unique aspect or characteristic of sleep. Overall, the MOS Sleep Scale measures the following:
All items, except for item 2, were transformed in a ‘0-100’ scale.
For the analysis of the MOS sleep scale, the following subscales were determined as means of the involved items (in part, after reversing the ratings in the ‘0-100’ scale, denoted by (R) in the item sequence):
Subjects self-reported the length of time it took for them to fall asleep and the average number of hours of sleep each night. Scores for all other items range from 1 (all of the time) to 6 (none of the time).
The MOS Sleep Scale was completed at Baseline (Visit 2) and final examination (Visit 3).

[2] = Plasma level of HPPD inhibitor and plasma tyrosine at steady state, 2 mg QD vs. 2 mg Q2D (FIG. 3); format: in vivo
Protocol: FIG. 3 is a graphical comparison of the mean plasma level of an exemplary HPPD inhibitor with plasma tyrosine at steady state following 2 mg QD vs. 2 mg Q2D dosing.
FIG. 3 provides an example of plasma tyrosine levels which are essentially identical and independent of whether the HPPD inhibitor is administered once a day or once every two days.

[3] = EoT Visit, M-ITT, none of the placebo patients
[4] = EoT, PPS n = 13, 4 mg day 1, 2 mg/day days 2-14
[5] = EoT, PPS n = 13, item 2 raw scores
[6] = M-ITT, HPPD inhibitor vs placebo
[7] = change from Baseline to EoT, PPS n = 13

With `O=C1CCCC(=O)C1C(=O)c1ccc(C(F)(F)F)cc1[N+](=O)[O-]` [HPPD Inhibitor, 2-(2-nitro-4-trifluoromethylbenzoyl)-1,3-cyclohexanedione] the “IRLS severity score: difference drug-placebo, LS mean” value ([1]; Baseline to EoT, M-ITT, 95%-CI: −9.75, 2.84, p=0.2636) was −3.46, the “IRLS total score, difference vs placebo” value ([1]; Baseline to EoT, not seen for IRLS impact score) was “numerical differences between Baseline and EoT favouring” and the “subjects reporting only mild or moderate RLS symptoms (IRLS scale), number” value ([1]; EoT, M-ITT, placebo 2) was 9 subjects. For the same compound, the “subjects reporting only mild or moderate RLS symptoms (IRLS scale), percentage” value ([1]; EoT, M-ITT, placebo 28.6%) was 64.3%, the “patients reporting optimal sleep (7-8 hours), number” value (Subjects with RLS; [3]) was 5 patients and the “patients reporting optimal sleep (7-8 hours), percentage” value (Subjects with RLS; [3]) was 35.7%. For the same compound, the “patients reporting optimal sleep (7-8 hours), number” value (Subjects with RLS; EoT Visit, PPS) was 4 patients, the “MOS Short of Breath Scale, absolute, Median” value (Subjects with RLS; EoT, PPS n = 13) was 0.0 and the “MOS Short of Breath Scale, absolute, Range” value (Subjects with RLS; EoT, PPS n = 13) was 0.0-40.0. The “MOS Sleep Adequacy Scale, absolute, Median” value (Subjects with RLS; EoT, PPS n = 13) was 50.0, the “MOS Sleep Adequacy Scale, absolute, Range” value (Subjects with RLS; EoT, PPS n = 13) was 0.0-80.0 and the “MOS Sleep Problems Index I, absolute, Median” value (Subjects with RLS; EoT, PPS n = 13) was 33.3. The “MOS Sleep Problems Index I, absolute, Range” value (Subjects with RLS; EoT, PPS n = 13) was 10.0-70.0, the “MOS Sleep Problems Index II, absolute, Median” value (Subjects with RLS; EoT, PPS n = 13) was 32.8 and the “MOS Sleep Problems Index II, absolute, Range” value (Subjects with RLS; EoT, PPS n = 13) was 11.1-74.4. For the same compound, the “MOS Snoring Scale, absolute, Median” value (Subjects with RLS; EoT, PPS n = 13) was 20.0, the “MOS Snoring Scale, absolute, Range” value (Subjects with RLS; EoT, PPS n = 13) was 0.0-40.0 and the “MOS Somnolence Scale, absolute, Median” value (Subjects with RLS; EoT, PPS n = 13) was 13.3. The “MOS Somnolence Scale, absolute, Range” value (Subjects with RLS; EoT, PPS n = 13) was 6.7-66.7, the “MOS Short of Breath Scale, absolute, M ± SD” value (Subjects with RLS; [4]) was 9.2 ± 15.5 and the “MOS Sleep Disturbance Scale, absolute, Median” value (Subjects with RLS; [4]) was 43.8. The “MOS Sleep Disturbance Scale, absolute, Range” value (Subjects with RLS; [4]) was 10.0-72.5, the “MOS Sleep Problems Index I, absolute, M ± SD” value (Subjects with RLS; [4]) was 36.7 ± 16.3 and the “MOS Sleep Problems Index II, absolute, M ± SD” value (Subjects with RLS; [4]) was 37.9 ± 16.8. The “MOS Snoring Scale, absolute, M ± SD” value (Subjects with RLS; [4]) was 20.0 ± 16.3, the “MOS Somnolence Scale, absolute, M ± SD” value (Subjects with RLS; [4]) was 24.6 ± 19.7 and the “MOS Sleep Disturbance Scale, absolute, M ± SD” value (Subjects with RLS; EoT, PPS n = 13, 4 mg day 1, 2 mg/day days 2-14, 0-100 scale, higher = stronger sleep problems) was 41.8 ± 16.7. For the same compound, the “MOS Sleep Adequacy Scale, absolute, M ± SD” value (Subjects with RLS; EoT, PPS n = 13, 4 mg day 1, 2 mg/day days 2-14, higher values = better) was 46.9 ± 25.9, the “MOS Sleep Quantity, absolute, Median” value (Subjects with RLS; [5]) was 6.0 h and the “MOS Sleep Quantity, absolute, Range” value (Subjects with RLS; [5]) was 4.0 to 8.0 h. For the same compound, the “MOS Sleep Quantity, absolute, M ± SD” value (Subjects with RLS; EoT, PPS n = 13, item 2 raw scores, 4 mg day 1, 2 mg/day days 2-14) was 6.1 ± 1.0 h, the “MOS sleep adequacy: difference HPPD inhibitor—placebo, LS mean” value (Subjects with RLS; M-ITT, 95%-CI: 1.30, 52.64, p=0.0405 two-sided from ANCOVA) was 26.97 and the “MOS sleep disturbance: difference HPPD inhibitor—placebo, LS mean” value (Subjects with RLS; M-ITT, 95%-CI: −35.53, 0.93, p=0.0616 two-sided from ANCOVA) was −17.30. For the same compound, the “MOS sleep problems index II: difference HPPD inhibitor—placebo, LS mean” value (Subjects with RLS; M-ITT, 95%-CI: −36.18, 2.61, p=0.0857 two-sided from ANCOVA) was −16.78, the “MOS sleep problems index I: difference HPPD inhibitor—placebo, LS mean” value (Subjects with RLS; M-ITT, 95%-CI: −37.80, 0.31, p=0.0534 two-sided from ANCOVA) was −18.75 and the “MOS sleep adequacy: effect size d” value (Subjects with RLS; [6]) was 0.50. The “MOS sleep disturbance: effect size d” value (Subjects with RLS; [6]) was 0.55, the “MOS sleep problems index I: effect size d” value (Subjects with RLS; [6]) was 0.54 and the “MOS sleep problems index II: effect size d” value (Subjects with RLS; [6]) was 0.41. For the same compound, the “MOS Short of Breath Scale, change, M ± SD” value (Subjects with RLS; [7]) was −7.7 ± 19.2, the “MOS Short of Breath Scale, change, Median” value (Subjects with RLS; [7]) was 0.0 and the “MOS Short of Breath Scale, change, Range” value (Subjects with RLS; [7]) was −40.0-20.0. For the same compound, the “MOS Sleep Adequacy Scale, change, M ± SD” value (Subjects with RLS; [7]) was 26.9 ± 35.5, the “MOS Sleep Adequacy Scale, change, Median” value (Subjects with RLS; [7]) was 30.0 and the “MOS Sleep Adequacy Scale, change, Range” value (Subjects with RLS; [7]) was −50.0-80.0. The “MOS Sleep Disturbance Scale, change, M ± SD” value (Subjects with RLS; [7]) was −35.0 ± 27.5, the “MOS Sleep Disturbance Scale, change, Median” value (Subjects with RLS; [7]) was −46.3 and the “MOS Sleep Disturbance Scale, change, Range” value (Subjects with RLS; [7]) was −68.8-11.3. The “MOS Sleep Problems Index I, change, M ± SD” value (Subjects with RLS; [7]) was −23.8 ± 20.3, the “MOS Sleep Problems Index I, change, Median” value (Subjects with RLS; [7]) was −20.0 and the “MOS Sleep Problems Index I, change, Range” value (Subjects with RLS; [7]) was −60.0-3.3. The “MOS Sleep Problems Index II, change, M ± SD” value (Subjects with RLS; [7]) was −25.5 ± 19.9, the “MOS Sleep Problems Index II, change, Median” value (Subjects with RLS; [7]) was −23.9 and the “MOS Sleep Problems Index II, change, Range” value (Subjects with RLS; [7]) was −61.7-−1.7. For the same compound, the “MOS Sleep Quantity, change, M ± SD” value (Subjects with RLS; [7]) was 1.8 ± 1.1 h, the “MOS Sleep Quantity, change, Median” value (Subjects with RLS; [7]) was 2.0 h and the “MOS Sleep Quantity, change, Range” value (Subjects with RLS; [7]) was 0.0 to 3.0 h. The “MOS Snoring Scale, change, M ± SD” value (Subjects with RLS; [7]) was −6.2 ± 15.0, the “MOS Snoring Scale, change, Median” value (Subjects with RLS; [7]) was 0.0 and the “MOS Snoring Scale, change, Range” value (Subjects with RLS; [7]) was −40.0-20.0. The “MOS Somnolence Scale, change, M ± SD” value (Subjects with RLS; [7]) was −10.3 ± 16.0, the “MOS Somnolence Scale, change, Median” value (Subjects with RLS; [7]) was −13.3 and the “MOS Somnolence Scale, change, Range” value (Subjects with RLS; [7]) was −33.3-13.3. The “steady state plasma tyrosine levels, once a day vs once in two days” value ([2]; 2 mg once a day vs 2 mg once in 2 days) was “substantially similar” and the “plasma levels of the HPPD inhibitor, once in two day regimen vs once a day” value ([2]; 2 mg once in 2 days vs 2 mg once a day, steady state) was “lower”.
